From article PMC5045939, “Comparison of [^11C]TZ1964B and [^18F]MNI659 for PET imaging brain PDE10A in nonhuman primates” (Pharmacology Research & Perspectives, 2016)
Several values for one entry are separate records, joined by “and”; a condition that tells them apart may be missing. Identical values can stand only once. Like-named read-outs stand apart in the source and are kept apart here.

Key:
[1] = Log P measurement, 1-octanol/PBS pH 7.4; assay type: physicochemical; conditions: 1-octanol / 0.1 mol/L PBS pH 7.4, Log D7.4 taken as Log P
Experimental: Log P was measured according to the previous report (Li et al. 2013b), by adding different volumes of [^11C]TZ1964B or [^18F]MNI659 into a mixture of 1‐octanol (3 mL) and 0.1 mol/L phosphate‐buffered saline (PBS, pH 7.4, 3 mL). The mixture was vortexed and then centrifuged. Then, 2 mL organic layer was mixed with 1 mL 1‐octanol and 3 mL PBS buffer. The resulting mixture was vortexed and centrifuged again. Then 1 mL of the organic layer and 1 mL of the aqueous layer were separated and loaded in a gamma counter. The results were corrected for background radiation and physical decay. The partition coefficient Log D7.4, which equals Log P, was calculated as the decimal logarithm the ratio of cpm/mL of 1‐octanol to that of PBS.

PDE10A [2] = conditions: cited from earlier work
PDE10A [3] = conditions: cited from earlier work; remark: listed apart in the source
PDE10A [4] = experiment: microPET imaging of NHP brain, reference-based kinetic analysis and AUC ratio; assay type: in vivo, cynomolgus monkey; conditions: for AUC ratio: 60-120 min; for AUC ratio / BPND-Logan / BPND-SRTM / AUC ratio (Stri/Cere) / R1 / k2: mean ± SD; for AUC ratio (Stri/Cere): NHP striatum to cerebellum, 60-120 min data; for time of peak (max SUV) striatal uptake: post injection, averaged SUV curves
Experimental: PET imaging studies were carried out on two adult male cynomolgus monkeys, weighing on 7–8 kg. Subject A underwent three sets of double scans, and Subject B underwent one set of double scans. Animals were prepared for microPET studies as previously reported (Liu et al. 2015). About 1.5–2.5% isoflurane inhalation anesthesia was maintained throughout the microPET imaging sessions. A 20‐gage plastic catheter was inserted into a limb vein to permit hydration and injection of the radiotracer. Arterial blood was collected through another 20‐gage plastic catheter which was placed into a femoral artery.
The imaging studies of [^11C]TZ1964B and [^18F]MNI659 in the NHP brain through double scans were done using a MicroPET Focus 220 scanner (Concorde/CTI/Siemens Microsystems, Knoxville, TN). For all the double scans, [^11C]TZ1964B studies were performed in the morning and [^18F]MNI659 in the afternoon, with an interval of ~3 h between the injection of each tracer. Prior to each PET acquisition, a 45‐min transmission scan for attenuation correction was performed following a 10 min transmission that was used to check the position of the brain within the scanner. Subsequently, 296–370 MBq of [^11C]TZ1964B or [^18F]MNI659 was intravenously injected, and a 120 min dynamic (3 × 1‐min frames, 4 × 2‐min frames, 3 × 3‐min frames, and 20 × 5‐min frames) PET scan was acquired.
The PET images were processed according to the previous report (Liu et al. 2015). Briefly, emission scans were corrected and reconstructed using filtered back projection as described previously (Miller et al. 1989). The final reconstructed resolution was 2.00 mm full width at half maximum (FWHM) for all three dimensions (axial) at center of the field of view. The actual field of view is 25.8 cm diameter and a 7.6 cm axial length. The reconstructed PET images was co‐registered with magnetization‐prepared rapid gradient echo (MP‐RAGE) MR images using Automated Image Registration (AIR) (Woods et al. 1993), and superimposed using Analyze 10.0 (AnalyzeDirect, Overland Park, KS) for quality control. For quantitative analyses, three‐dimensional regions of interest (ROIs) for cerebellum (Subject A: 583 voxels; Subject B: 750 voxels, the voxel size is 1.858 mm × 1.858 mm × 0.796 mm = 2.75 μL), striatum (A: 695 voxels; B: 1158 voxels), frontal cortex (A: 263 voxels; B: 225 voxels), midbrain (A: 64 voxels; B: 118 voxels), and hippocampus (A: 68 voxels; B: 64 voxels) were identified on MRI images and then transformed into PET images using the co‐registration transformation matrix. The ROIs for each animal were kept fixed for all subsequent studies once identified on a baseline scan. Time–activity curves (TACs) for each ROI were then obtained from the dynamic PET images. Standardized uptake value (SUV) of each tracer was calculated and standardized to the body weight and the injected dose of radioactivity.
Regional tracer uptake was quantified using two different reference‐based kinetic methods: Logan Reference (LoganREF) model (Logan et al. 1990, 1996; Innis et al. 2007; Liu et al. 2015) and simplified reference tissue model (SRTM) (Lammertsma and Hume 1996; Gunn et al. 1997; Innis et al. 2007; Liu et al. 2015). According to the LoganREF model, the distribution volume ratio (DVR) of each ROI was calculated using a MATLAB (Mathworks Inc., Natick, MA). The nondisplaceable binding potential (BPND) was then estimated: BPND = DVR‐1. BPND and R1, k 2 values were also obtained from the SRTM model (Lammertsma and Hume 1996; Watabe et al. 1996).
We also calculated the area under the time–activity curve (AUC) for the striatal to cerebellar ratio (AUC‐striatum/AUC‐cerebellum); this is a simple model and input function‐independent method to quantify an index of tracer accumulation in the brain (Muller Herde et al. 2015). […] Ideally, the AUC ratio equals the DVR determined by LoganREF model (Muller Herde et al. 2015). […]

[5] = radiometabolite analysis of NHP arterial plasma by HPLC; assay type: in vivo, cynomolgus monkey; conditions: 60 min post injection, n = 1
Experimental: The radiometabolite analysis was performed according to previous reports (Tu et al. 2011, 2015). Arterial blood samples (1.2–1.5 mL) were collected in a heparinized syringe at 2, 5, 15, 30, and 60 min (for [^11C]TZ1964B) or 5, 15 30, 60, 90, and 120 min (for [^18F]MNI659) postinjection of each radiotracer. Plasma (400 μL) was collected by centrifugation of the whole blood and mixed with ice‐cold methanol (0.92 mL) to deproteinate and extract the parent compound and radiolabeled metabolites. After centrifugation, the supernatant was mixed with water (1/1, v/v), and loaded onto a HPLC system with an Agilent SB C‐18 analytical HPLC column (250 mm × 4.6 mm, 5 μ) and a UV detector with 254 nm wavelength. The mobile phase was acetonitrile/0.1 mol/L ammonium formate buffer pH 4.5, (52/48, v/v) with a flow rate of 1.0 mL/min. The eluted fractions were collected for 16 min at 1 min intervals; the radioactivity of in each fraction was counted in a well counter, and results were corrected for background radiation and physical decay.

[6] = NHP frontal cortex to cerebellum
[7] = NHP midbrain to cerebellum, n = 4 scans in 2 NHPs
[8] = NHP striatum, LoganREF model, cerebellum reference, n = 4 scans in 2 NHPs
[9] = NHP striatum, SRTM, cerebellum reference, n = 4 scans in 2 NHPs
[10] = Figure 1, no reference given, read-out: Kd

In the case of Cc1ccc2c(=O)n(-c3ccc(OCCF)cc3)c(CCN3C(=O)c4cccc(OC(C)C)c4C3=O)nc2c1 [MNI659], the logP [1] is given as 1.98 and the Kd (PDE10A [2]; in vitro, given as Kd in Figure 1, ref Barret et al. 2014, read-out: binding potency for PDE10A) is given as 97 pM.
In the case of COc1cc2ccccc2nc1COc1ccc(-c2nn(C)cc2-c2ccncc2)cc1 [TZ1964B], the logP [1] is listed as 1.98 and the IC50 (PDE10A [3]; in vitro binding potency, ref Li et al. 2013a, read-out: IC50 toward PDE10A) is listed as 400 ± 20 pM.
For Cn1cc(-c2ccncc2)c(-c2ccc(OCc3nc4ccccc4cc3O[11CH3])cc2)n1 [[^11C]TZ1964B, 3‐[^11C]methoxy‐2‐((4‐(1‐methyl‐4‐(pyridin‐4‐yl)‐1H‐pyrazol‐3‐yl)phenoxy)methyl)‐quinoline], the AUC ratio (PDE10A [4]; [6]) was 1.38 ± 0.13, the BPND-Logan (PDE10A [4]; NHP frontal cortex) was 0.15 ± 0.05 and the BPND-SRTM (PDE10A [4]; NHP frontal cortex) was 0.43 ± 0.28. It also gave an AUC ratio (PDE10A [4]; NHP hippocampus to cerebellum) of 1.35 ± 0.41, a BPND-Logan (PDE10A [4]; NHP hippocampus) of 0.11 ± 0.25 and a BPND-SRTM (PDE10A [4]; NHP hippocampus) of 0.32 ± 0.50. It also gave an AUC ratio (PDE10A [4]; [7]) of 1.51 ± 0.47, a BPND-Logan (PDE10A [4]; NHP midbrain) of 0.26 ± 0.20 and a BPND-SRTM (PDE10A [4]; NHP midbrain) of 0.57 ± 0.30. For the same compound, the “AUC ratio (Stri/Cere)” value (PDE10A [4]; n = 4 scans in 2 NHPs) was 5.87 and 5.87 ± 0.45, the BPND-Logan (PDE10A [4]; [8]) was 3.72 and 3.72 ± 0.62 and the BPND-SRTM (PDE10A [4]; [9]) was 4.39 and 4.39 ± 0.39. For the same compound, the R1 (PDE10A [4]; NHP striatum, SRTM) was 1.16 ± 0.17, the k2 (PDE10A [4]; NHP striatum, SRTM) was 0.13 ± 0.017 min⁻¹ and the “time of peak (max SUV) striatal uptake” value (PDE10A [4]; NHP striatum) was 40 to 60 min. The “percentage of parent compound in plasma” value [5] was ~ 70%, the logP [1] was 1.98 ± 0.09 and the Ki (PDE10A [3]; Figure 1, no reference given) was 400 ± 20 pM. The Kd (PDE10A [2]; [10]) was 1250 ± 200 pM.
For Cc1ccc2c(=O)n(-c3ccc(OCC[18F])cc3)c(CCN3C(=O)c4cccc(OC(C)C)c4C3=O)nc2c1 [[^18F]MNI659, 2‐(2‐(3‐(4‐(2‐[^18F]fluoroethoxy)phenyl)‐7‐methyl‐4‐oxo‐3,4‐dihydroquinazolin‐2‐yl)ethyl)‐4‐isopropoxyisoindoline‐1,3‐dione], the AUC ratio (PDE10A [4]; [6]) was 1.37 ± 0.12, the BPND-Logan (PDE10A [4]; NHP frontal cortex) was 0.29 ± 0.10 and the BPND-SRTM (PDE10A [4]; NHP frontal cortex) was 0.29 ± 0.09. For the same compound, the AUC ratio (PDE10A [4]; NHP hippocampus to cerebellum) was 1.08 ± 0.23, the BPND-Logan (PDE10A [4]; NHP hippocampus) was 0.11 ± 0.18 and the BPND-SRTM (PDE10A [4]; NHP hippocampus) was 0.16 ± 0.20. For the same compound, the AUC ratio (PDE10A [4]; [7]) was 2.59 ± 0.42, the BPND-Logan (PDE10A [4]; NHP midbrain) was 1.02 ± 0.14 and the BPND-SRTM (PDE10A [4]; NHP midbrain) was 1.11 ± 0.16. For the same compound, the “AUC ratio (Stri/Cere)” value (PDE10A [4]; n = 4 scans in 2 NHPs) was 7.60 and 7.60 ± 2.68, the BPND-Logan (PDE10A [4]; [8]) was 5.08 and 5.08 ± 1.62 and the “striatal K2 value relative to [^11C]TZ1964B” value (PDE10A [4]; NHP striatum, SRTM) was “twofold”. For the same compound, the BPND-SRTM (PDE10A [4]; [9]) was 5.33 and 5.33 ± 1.36, the R1 (PDE10A [4]; NHP striatum, SRTM) was 1.20 ± 0.20 and the k2 (PDE10A [4]; NHP striatum, SRTM) was 0.28 ± 0.13 min⁻¹. The “time of peak (max SUV) striatal uptake” value (PDE10A [4]; NHP striatum) was “about 10 min”, the “percentage of parent compound in plasma” value [5] was ~ 50% and the logP [1] was 1.98 ± 0.06. For the same compound, the Kd (PDE10A [2]; [10]) was 97 pM.
